Data from ChEMBL document CHEMBL6120942 (J Med Chem, 2024).
Converted amounts (≈) assume the structure as drawn. The source made the active and inactive calls. The rule behind the calls is not given here.

How the values were obtained:
[1] = target: T1, Voltage-gated inwardly rectifying potassium channel KCNH2 (Homo sapiens, UniProt Q12809); experiment: Inhibition of hERG by patch clamp assay; type: toxicity
[2] = target: T1, Voltage-gated inwardly rectifying potassium channel KCNH2; experiment: Inhibition of hERG by Qpatch clamp assay; type: toxicity
[3] = physchem; settings: octanol/water, pH 7.4, logD
Description: (§1) Distribution coefficient, logD of compound at pH 7.4 by HPLC analysis

[4] = in vitro; settings: dog, MDCK-MDR1, permeability
Description: (§2) Permeability across apical to basolateral side in dog MDCK-MDR1 cells measured for 60 mins by LC-MS/MS analysis

[5] = target: Integrin alpha-V/beta-6 (Homo sapiens, UniProt P06756+P18564); experiment: Binding affinity to Integrin alphaVbeta6 (unknown origin); type: protein-complex assay
[6] = Unbound clearance in male Beagle dog at 1 mg/kg, po or 1 mg/kg, iv measured upto 24 hrs by LC-MS/MS analysis; type: ADME, organism-based, Canis lupus familiaris; settings: in vivo
[7] = Unbound clearance in male Wistar Han rat at 1 mg/kg, po or 1 mg/kg, iv measured upto 24 hrs by LC-MS/MS analysis; type: ADME, organism-based; settings: in vivo
[8] = Half life in male Wistar Han rat at 1 mg/kg, iv measured upto 24 hrs by LC-MS/MS analysis; type: ADME, organism-based; settings: in vivo
[9] = Volume of distribution at steady state in male Wistar Han rat at 1 mg/kg, po or 1 mg/kg, iv measured upto 24 hrs by LC-MS/MS analysis; type: ADME, organism-based; settings: in vivo
[10] = Oral bioavailability in male Wistar Han rat at 1 mg/kg measured upto 24 hrs by LC-MS/MS analysis; type: ADME, organism-based; settings: in vivo
[11] = Half life in male Beagle dog at 1 mg/kg, iv measured upto 24 hrs by LC-MS/MS analysis; type: ADME, organism-based, Canis lupus familiaris; settings: in vivo
[12] = Volume of distribution at steady state in male Beagle dog at 1 mg/kg, po or 1 mg/kg, iv measured upto 24 hrs by LC-MS/MS analysis; type: ADME, organism-based, Canis lupus familiaris; settings: in vivo
[13] = Oral bioavailability in male Beagle dog at 1 mg/kg measured upto 24 hrs by LC-MS/MS analysis; type: ADME, organism-based, Canis lupus familiaris; settings: in vivo
[14] = Kinetic solubility of compound; type: physicochemical; settings: read-out: Kinetic_solubility
[15] = Permeability across apical to basolateral side in MDCK cells; type: ADME, cell-based, Canis lupus familiaris; settings: dog, read-out: permeability
[16] = Metabolic stability in human microsome assessed as clearance measured upto 60 mins by LC-MS/MS analysis; type: ADME; settings: microsomes, 1 h
[17] = Metabolic stability in human Hepatocyte assessed as clearance measured upto 60 mins by LC-MS/MS analysis; type: ADME, cell-based; settings: hepatocytes, 1 h
[18] = Metabolic stability in Wistar rat liver Microsome assessed as clearance measured upto 60 mins by LC-MS/MS analysis; type: ADME; settings: microsomes, 1 h
[19] = Metabolic stability in Wistar rat Hepatocyte assessed as clearance measured upto 60 mins by LC-MS/MS analysis; type: ADME, cell-based; settings: hepatocytes, 1 h
[20] = Unbound clearance in Gottingen minipig at 1 mg/kg, po or 1 mg/kg, iv measured upto 24 hrs by LC-MS/MS analysis; type: ADME, organism-based, Sus scrofa; settings: pig, in vivo
[21] = Half life in Gottingen minipig at 1 mg/kg, iv measured upto 24 hrs by LC-MS/MS analysis; type: ADME, organism-based, Sus scrofa; settings: pig, in vivo
[22] = Volume of distribution at steady state in Gottingen minipig at 1 mg/kg, po or 1 mg/kg, iv measured upto 24 hrs by LC-MS/MS analysis; type: ADME, organism-based, Sus scrofa; settings: pig, in vivo
[23] = Oral bioavailability in Gottingen minipig at 1 mg/kg measured upto 24 hrs by LC-MS/MS analysis; type: ADME, organism-based, Sus scrofa; settings: pig, in vivo
[24] = octanol/water, pH 7.4
Description: as §1

[25] = dog, mdck-mdr1, 1 h
Description: as §2

[26] = target: Integrin alpha-V/beta-3 (Homo sapiens, UniProt P05106+P06756); experiment: Binding affinity to Integrin alphaVbeta3 (unknown origin); type: protein-complex assay
[27] = target: Integrin alpha-V/beta-5 (Homo sapiens, UniProt P06756+P18084); experiment: Binding affinity to Integrin alphaVbeta5 (unknown origin); type: protein-complex assay
[28] = target: Integrin alpha-V/beta-8 (Homo sapiens, UniProt P06756+P26012); experiment: Binding affinity to Integrin alphaVbeta8 (unknown origin); type: protein-complex assay
[29] = Volume of distribution at steady state in male Wistar Han rat at 2 mg/kg, po measured upto 24 hrs by LC-MS/MS analysis; type: ADME, organism-based; settings: in vivo
[30] = Oral bioavailability in male Wistar Han rat at 2 mg/kg measured upto 24 hrs by LC-MS/MS analysis; type: ADME, organism-based; settings: in vivo
[31] = AUC in rat at 2 mg/kg, po; type: ADME, organism-based; settings: in vivo
[32] = system: Mus musculus; experiment: Antifibrotic activity against bleomycin-induced mouse model of pulmonary fibrosis at 2 to 10 mg/kg, po; type: functional, organism-based; settings: dose 2-10 mg/kg
[33] = system: Mus musculus; experiment: Antifibrotic activity against bleomycin-induced mouse model of pulmonary fibrosis at 2 to 15 mg/kg, po; type: functional, organism-based; settings: dose 2-15 mg/kg
[34] = target: Integrin alpha-V/beta-1 (Homo sapiens, UniProt P05556+P06756); experiment: Binding affinity to Integrin alphaVbeta1 (unknown origin); type: protein-complex assay

Sequence of Integrin alpha-V/beta-6 (P06756 31-889 limits assumed): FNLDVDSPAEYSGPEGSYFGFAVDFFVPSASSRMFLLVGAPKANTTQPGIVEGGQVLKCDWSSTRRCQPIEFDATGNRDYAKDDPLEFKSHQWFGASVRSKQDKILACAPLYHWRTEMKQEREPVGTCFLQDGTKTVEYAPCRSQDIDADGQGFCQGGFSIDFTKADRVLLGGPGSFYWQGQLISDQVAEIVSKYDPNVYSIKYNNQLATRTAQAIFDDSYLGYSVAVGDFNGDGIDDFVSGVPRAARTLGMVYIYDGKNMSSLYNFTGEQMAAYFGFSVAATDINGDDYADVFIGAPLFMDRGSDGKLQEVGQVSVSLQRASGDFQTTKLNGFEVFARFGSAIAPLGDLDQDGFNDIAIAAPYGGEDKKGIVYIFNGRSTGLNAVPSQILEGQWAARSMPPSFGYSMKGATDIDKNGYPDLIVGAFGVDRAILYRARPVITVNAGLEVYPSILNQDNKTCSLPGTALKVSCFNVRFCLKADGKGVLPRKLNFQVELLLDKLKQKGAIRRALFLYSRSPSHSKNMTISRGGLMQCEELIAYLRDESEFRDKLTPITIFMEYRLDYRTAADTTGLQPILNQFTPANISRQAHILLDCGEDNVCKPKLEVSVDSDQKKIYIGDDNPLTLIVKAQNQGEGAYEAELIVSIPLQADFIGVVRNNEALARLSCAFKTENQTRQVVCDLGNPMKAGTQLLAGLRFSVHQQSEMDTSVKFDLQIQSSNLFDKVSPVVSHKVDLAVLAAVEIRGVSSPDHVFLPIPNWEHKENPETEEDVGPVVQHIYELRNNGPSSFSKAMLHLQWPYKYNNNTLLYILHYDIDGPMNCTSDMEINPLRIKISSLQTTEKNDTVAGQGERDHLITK
Sequence of Integrin alpha-V/beta-6 (P06756 891-1048 limits assumed): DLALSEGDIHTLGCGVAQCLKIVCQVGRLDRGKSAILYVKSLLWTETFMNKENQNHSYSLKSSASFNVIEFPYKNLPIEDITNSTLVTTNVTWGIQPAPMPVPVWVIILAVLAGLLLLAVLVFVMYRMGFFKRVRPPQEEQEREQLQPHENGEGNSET
Sequence of Integrin alpha-V/beta-6 (P18564 22-788 limits assumed): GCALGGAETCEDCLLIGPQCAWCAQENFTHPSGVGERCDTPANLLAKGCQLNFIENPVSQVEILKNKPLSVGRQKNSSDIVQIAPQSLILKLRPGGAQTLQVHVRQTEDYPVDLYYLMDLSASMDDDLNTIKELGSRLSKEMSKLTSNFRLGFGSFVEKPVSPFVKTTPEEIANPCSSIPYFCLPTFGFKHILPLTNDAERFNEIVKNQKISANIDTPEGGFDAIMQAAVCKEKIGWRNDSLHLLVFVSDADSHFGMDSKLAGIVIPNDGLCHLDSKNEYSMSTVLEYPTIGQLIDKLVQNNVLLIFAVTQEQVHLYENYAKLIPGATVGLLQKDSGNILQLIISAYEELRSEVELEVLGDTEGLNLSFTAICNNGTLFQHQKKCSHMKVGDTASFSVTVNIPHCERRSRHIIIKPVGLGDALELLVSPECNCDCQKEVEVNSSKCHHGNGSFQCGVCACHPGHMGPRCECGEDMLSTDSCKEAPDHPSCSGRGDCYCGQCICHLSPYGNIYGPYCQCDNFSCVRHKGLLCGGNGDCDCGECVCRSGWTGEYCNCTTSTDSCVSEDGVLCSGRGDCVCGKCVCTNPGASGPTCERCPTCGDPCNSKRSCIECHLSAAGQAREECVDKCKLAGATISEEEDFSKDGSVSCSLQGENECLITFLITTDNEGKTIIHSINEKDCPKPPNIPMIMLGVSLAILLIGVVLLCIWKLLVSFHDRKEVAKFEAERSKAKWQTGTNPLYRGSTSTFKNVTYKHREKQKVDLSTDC
T1 sequence (Q12809 whole entry): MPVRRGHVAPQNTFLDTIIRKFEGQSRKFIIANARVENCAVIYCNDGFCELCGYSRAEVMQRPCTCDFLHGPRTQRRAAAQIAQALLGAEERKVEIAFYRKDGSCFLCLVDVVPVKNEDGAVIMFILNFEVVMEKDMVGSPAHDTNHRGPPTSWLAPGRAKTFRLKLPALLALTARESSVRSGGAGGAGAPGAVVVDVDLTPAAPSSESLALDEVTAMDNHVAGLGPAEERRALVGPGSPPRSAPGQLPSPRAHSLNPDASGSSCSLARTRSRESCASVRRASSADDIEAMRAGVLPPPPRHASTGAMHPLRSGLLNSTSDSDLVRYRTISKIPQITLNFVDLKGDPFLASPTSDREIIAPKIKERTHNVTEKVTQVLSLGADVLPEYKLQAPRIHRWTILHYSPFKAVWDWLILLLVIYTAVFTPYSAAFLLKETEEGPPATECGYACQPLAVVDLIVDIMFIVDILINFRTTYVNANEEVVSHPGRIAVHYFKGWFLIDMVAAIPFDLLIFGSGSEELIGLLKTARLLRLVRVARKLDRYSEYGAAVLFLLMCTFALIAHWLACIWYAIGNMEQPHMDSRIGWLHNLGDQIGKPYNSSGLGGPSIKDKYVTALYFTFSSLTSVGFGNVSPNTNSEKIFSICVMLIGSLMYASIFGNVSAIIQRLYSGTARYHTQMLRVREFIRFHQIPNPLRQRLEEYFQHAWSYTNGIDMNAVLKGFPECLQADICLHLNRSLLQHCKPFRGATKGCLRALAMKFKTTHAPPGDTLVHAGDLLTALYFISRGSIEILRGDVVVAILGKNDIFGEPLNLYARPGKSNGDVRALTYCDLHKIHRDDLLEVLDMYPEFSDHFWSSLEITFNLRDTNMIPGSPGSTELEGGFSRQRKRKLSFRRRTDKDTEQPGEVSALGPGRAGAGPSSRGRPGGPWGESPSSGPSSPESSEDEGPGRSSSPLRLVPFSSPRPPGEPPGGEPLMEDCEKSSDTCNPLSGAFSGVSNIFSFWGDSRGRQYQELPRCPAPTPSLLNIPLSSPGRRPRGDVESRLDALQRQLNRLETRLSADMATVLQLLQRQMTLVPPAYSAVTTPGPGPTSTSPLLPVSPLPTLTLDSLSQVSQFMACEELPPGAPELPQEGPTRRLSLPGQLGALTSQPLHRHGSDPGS
Sequence of Integrin alpha-V/beta-3 (P05106 27-788 limits assumed): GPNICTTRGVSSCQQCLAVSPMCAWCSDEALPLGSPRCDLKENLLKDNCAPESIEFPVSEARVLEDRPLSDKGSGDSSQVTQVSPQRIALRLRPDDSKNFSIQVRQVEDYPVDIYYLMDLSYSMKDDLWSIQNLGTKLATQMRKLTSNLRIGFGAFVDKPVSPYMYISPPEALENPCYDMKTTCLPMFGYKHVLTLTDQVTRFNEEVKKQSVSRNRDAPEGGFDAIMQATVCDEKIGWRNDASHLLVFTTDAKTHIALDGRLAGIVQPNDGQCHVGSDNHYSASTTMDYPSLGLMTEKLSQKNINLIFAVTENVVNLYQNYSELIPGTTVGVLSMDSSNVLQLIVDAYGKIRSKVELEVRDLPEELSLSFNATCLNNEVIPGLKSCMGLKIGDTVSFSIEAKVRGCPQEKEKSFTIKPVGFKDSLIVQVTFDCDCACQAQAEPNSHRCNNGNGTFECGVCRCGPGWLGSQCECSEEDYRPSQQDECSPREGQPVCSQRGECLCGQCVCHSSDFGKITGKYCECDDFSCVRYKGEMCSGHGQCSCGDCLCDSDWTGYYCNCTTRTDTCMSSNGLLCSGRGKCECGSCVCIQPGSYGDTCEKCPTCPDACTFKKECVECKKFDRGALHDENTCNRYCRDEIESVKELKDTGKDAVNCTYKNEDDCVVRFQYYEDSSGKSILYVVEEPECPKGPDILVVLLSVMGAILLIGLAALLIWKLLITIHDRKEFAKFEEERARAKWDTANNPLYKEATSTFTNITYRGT
Sequence of Integrin alpha-V/beta-3 (P06756 31-889 limits assumed): as the sequence (P06756 31-889 limits assumed) above
Sequence of Integrin alpha-V/beta-3 (P06756 891-1048 limits assumed): as the sequence (P06756 891-1048 limits assumed) above
Sequence of Integrin alpha-V/beta-5 (P06756 31-889 limits assumed): as the sequence (P06756 31-889 limits assumed) above
Sequence of Integrin alpha-V/beta-5 (P06756 891-1048 limits assumed): as the sequence (P06756 891-1048 limits assumed) above
Sequence of Integrin alpha-V/beta-5 (P18084 24-799 limits assumed): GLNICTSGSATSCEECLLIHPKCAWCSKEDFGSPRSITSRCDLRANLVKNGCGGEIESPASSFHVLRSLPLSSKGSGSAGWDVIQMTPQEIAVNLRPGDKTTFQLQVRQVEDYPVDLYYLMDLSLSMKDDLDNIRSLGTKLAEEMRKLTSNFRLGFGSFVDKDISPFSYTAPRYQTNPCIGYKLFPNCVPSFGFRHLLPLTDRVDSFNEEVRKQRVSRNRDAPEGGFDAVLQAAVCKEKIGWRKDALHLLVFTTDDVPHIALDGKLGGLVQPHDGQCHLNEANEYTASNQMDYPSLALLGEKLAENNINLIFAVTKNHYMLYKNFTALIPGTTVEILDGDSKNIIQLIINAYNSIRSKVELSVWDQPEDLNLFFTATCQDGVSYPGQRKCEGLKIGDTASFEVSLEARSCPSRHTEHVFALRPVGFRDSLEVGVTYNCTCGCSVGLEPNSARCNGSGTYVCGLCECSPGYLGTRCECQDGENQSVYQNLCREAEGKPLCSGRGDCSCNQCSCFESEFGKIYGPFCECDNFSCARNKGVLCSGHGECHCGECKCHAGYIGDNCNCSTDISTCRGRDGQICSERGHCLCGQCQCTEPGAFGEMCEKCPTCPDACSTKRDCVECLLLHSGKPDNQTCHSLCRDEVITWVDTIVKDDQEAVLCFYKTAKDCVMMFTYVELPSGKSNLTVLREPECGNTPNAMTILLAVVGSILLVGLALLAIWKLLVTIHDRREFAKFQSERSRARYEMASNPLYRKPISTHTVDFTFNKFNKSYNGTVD

SMILES	logD [3]	Papp A→B at 1 h [4] [×10⁻⁶ cm/s]	IC50 [5] [nM]	CL free [7] [mL/min/kg]	half-life [8] [h]	Vdss [9] [L/kg]	bioavailability [10] [%]	solubility kinetic [14] [µg/mL]	Papp A→B [15] [×10⁻⁶ cm/s]	CLH [16] [mL/min/g]	further results
O=C(O)C[C@H](CN1CC[C@](F)(CCc2ccc3c(n2)NCCC3)C1)c1cccc(N2CCOCC2)c1	2.66	9.3									IC50 [1]: > 10000 nM; IC50 [2]: > 10000 nM
O=C(O)C[C@H](CN1CCCC(F)(CCc2ccc3c(n2)NCCC3)C1)c1cccc(N2CCOCC2)c1 (stereo in doubt; 4a)	2.68	21.6	50.1								
Cc1cc(C)n(-c2cccc([C@H](CC(=O)O)CN3CC[C@@H](CCc4ccc5c(n4)NCCC5)C3)c2)n1.Cl [GSK-3008348]				189	0.8	2.1	< 2				CL free [6]: 124 mL/min/kg; half-life [11]: 3.6 h; Vdss [12]: 3.6 L/kg; bioavailability [13]: 30%
O=C(O)C[C@H](CN1CC(CCc2ccc3c(n2)NCCC3)CC(F)(F)C1)c1cccc(N2CCOCC2)c1 (stereo in doubt; 3a)	3.46	36	631								
O=C(O)C[C@H](CN1CC[C@@](F)(CCc2ccc3c(n2)NCCC3)C1)c1cccc(N2CCOCC2)c1	2.68	21.8		206	1.9	4.1	77	258 (≈ 520 µM)	8.7	< 0.46	CL free [6]: 18 mL/min/kg; IC50 [1]: > 10000 nM; IC50 [2]: > 10000 nM; CLH [17]: < 0.62 mL/min/g; CLH [18]: < 0.49 mL/min/g; CLH [19]: < 1.04 mL/min/g; half-life [11]: 6.1 h; Vdss [12]: 2.5 L/kg; bioavailability [13]: 74%; CL free [20]: 58 mL/min/kg; half-life [21]: 3 h; Vdss [22]: 2.5 L/kg; bioavailability [23]: 34%
O=C(O)C[C@H](CN1CC(CCc2ccc3c(n2)NCCC3)CC(F)(F)C1)c1cccc(N2CCOCC2)c1 (stereo in doubt; 3b)			79.4								logD [24]: 4.33; permeability [25]: 56 ×10⁻⁶ cm/s
O=C(O)C[C@H](CN1CC[C@@](F)(CCc2ccc3c(n2)NCCC3)C1)c1cccc(O[C@H]2CCOC2)c1	2.84	26		58	2.8	1.9	61	194 (≈ 390 µM)	7.6	< 0.4	CL free [20]: 26 mL/min/kg; half-life [21]: 3.4 h; Vdss [22]: 1.4 L/kg; bioavailability [23]: 63%
Cc1cc(C)n(-c2cccc([C@H](CC(=O)O)CN3CC[C@@](F)(CCc4ccc5c(n4)NCCC5)C3)c2)n1	3.3	33	10					262 (≈ 518 µM)	17.7	< 0.53	IC50 [26]: 316 nM; IC50 [27]: 200 nM; IC50 [28]: 20 nM; CLH [17]: < 0.86 mL/min/g; CLH [18]: 0.91 mL/min/g; CLH [19]: 13.75 mL/min/g
O=C(O)C[C@H](CN1CC[C@@H](CCc2ccc3c(n2)NCCC3)C1)c1cccc(N2CCOCC2)c1	2.27	2.7									
O=C(O)C[C@H](CN1CCC(F)(F)C(CCc2ccc3c(n2)NCCC3)C1)c1cccc(N2CCOCC2)c1 (stereo in doubt; 2a)	4.02	37	2000								
COCCOc1cccc([C@H](CC(=O)O)CN2CC[C@@](F)(CCc3ccc4c(n3)NCCC4)C2)c1	2.93	14.6						127 (≈ 262 µM)	8.7		Vdss [29]: 3.6 L/kg; bioavailability [30]: 93%; Vdss [12]: 1.4 L/kg; bioavailability [13]: 104%; Vdss [22]: 0.9 L/kg; bioavailability [23]: 84%; AUC [31]: 779 ng·h/mL; Activity [32]: Active; Activity [33]: Active
O=C(O)C[C@H](CN1CCC(F)(F)C(CCc2ccc3c(n2)NCCC3)C1)c1cccc(N2CCOCC2)c1 (stereo in doubt; 2b)			501								logD [24]: 4.62; permeability [25]: 56 ×10⁻⁶ cm/s
O=C(O)C[C@H](CN1CCCC(F)(CCc2ccc3c(n2)NCCC3)C1)c1cccc(N2CCOCC2)c1 (stereo in doubt; 4b)			200								permeability [25]: 38 ×10⁻⁶ cm/s
O=C(O)C[C@H](CN1CC[C@@](F)(CCc2ccc3c(n2)NCCC3)C1)c1cccc(OC2CCOCC2)c1	3.18	17.2		182	3.5	4.9	50	209 (≈ 408 µM)	12.1	< 0.4	IC50 [27]: 31.6 nM; IC50 [28]: 12.6 nM; CLH [17]: < 0.21 mL/min/g; CLH [18]: < 0.46 mL/min/g; CLH [19]: 1.6 mL/min/g
O=C(O)C[C@H](CN1CC[C@@](F)(CCc2ccc3c(n2)NCCC3)C1)c1cccc(O[C@@H]2CCOC2)c1	2.76	20.5		88	3.1	3.3	90	232 (≈ 466 µM)	7.8	< 0.4	IC50 [34]: 158 nM; IC50 [26]: 63.1 nM; CLH [17]: < 0.21 mL/min/g; CLH [18]: < 0.46 mL/min/g; CLH [19]: 1.4 mL/min/g; CL free [20]: 34 mL/min/kg; half-life [21]: 1.7 h; Vdss [22]: 1.5 L/kg; bioavailability [23]: 66%
COCCOc1cccc([C@H](CC(=O)O)CN2CC[C@](F)(CCc3ccc4c(n3)NCCC4)C2)c1	2.89								1.9		AUC [31]: 101 ng·h/mL
